Reference: ChEMBL document CHEMBL1152400, “Tetrahydrocarbazole amides with potent activity against human papillomaviruses” (Bioorg Med Chem Lett, 2009)

What was measured:
[1] = test system: Human papillomavirus type 16; test: Antiviral activity against Human papillomavirus 16 infected in human W12-20850 cells by hybrid capture method; format: functional, organism-based; conditions: Human papillomavirus 16, W12-20850
[2] = Cytotoxicity against HFF cells; format: cell-based; conditions: human
[3] = target: Cytochrome P450 2D6 (Homo sapiens, UniProt P10635); test: Inhibition of CYP2D6; format: ADME
Chain of Cytochrome P450 2D6 (P10635 whole entry): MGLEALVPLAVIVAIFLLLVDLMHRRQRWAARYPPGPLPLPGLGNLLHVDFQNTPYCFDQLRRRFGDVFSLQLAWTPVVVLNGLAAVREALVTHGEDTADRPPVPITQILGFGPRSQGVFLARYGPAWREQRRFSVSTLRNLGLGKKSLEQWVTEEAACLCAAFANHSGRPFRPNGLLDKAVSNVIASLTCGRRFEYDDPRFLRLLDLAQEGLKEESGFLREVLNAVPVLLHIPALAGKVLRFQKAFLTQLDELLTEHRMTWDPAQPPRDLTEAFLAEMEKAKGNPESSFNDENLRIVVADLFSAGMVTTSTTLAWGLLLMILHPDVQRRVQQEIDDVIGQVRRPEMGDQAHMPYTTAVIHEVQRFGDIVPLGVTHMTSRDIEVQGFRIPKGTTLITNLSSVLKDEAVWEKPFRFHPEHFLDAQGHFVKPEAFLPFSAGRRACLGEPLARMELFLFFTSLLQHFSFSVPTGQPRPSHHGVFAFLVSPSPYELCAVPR

[4] = target: Voltage-gated inwardly rectifying potassium channel KCNH2 (Homo sapiens, UniProt Q12809)
Chain of Voltage-gated inwardly rectifying potassium channel KCNH2 (Q12809 whole entry): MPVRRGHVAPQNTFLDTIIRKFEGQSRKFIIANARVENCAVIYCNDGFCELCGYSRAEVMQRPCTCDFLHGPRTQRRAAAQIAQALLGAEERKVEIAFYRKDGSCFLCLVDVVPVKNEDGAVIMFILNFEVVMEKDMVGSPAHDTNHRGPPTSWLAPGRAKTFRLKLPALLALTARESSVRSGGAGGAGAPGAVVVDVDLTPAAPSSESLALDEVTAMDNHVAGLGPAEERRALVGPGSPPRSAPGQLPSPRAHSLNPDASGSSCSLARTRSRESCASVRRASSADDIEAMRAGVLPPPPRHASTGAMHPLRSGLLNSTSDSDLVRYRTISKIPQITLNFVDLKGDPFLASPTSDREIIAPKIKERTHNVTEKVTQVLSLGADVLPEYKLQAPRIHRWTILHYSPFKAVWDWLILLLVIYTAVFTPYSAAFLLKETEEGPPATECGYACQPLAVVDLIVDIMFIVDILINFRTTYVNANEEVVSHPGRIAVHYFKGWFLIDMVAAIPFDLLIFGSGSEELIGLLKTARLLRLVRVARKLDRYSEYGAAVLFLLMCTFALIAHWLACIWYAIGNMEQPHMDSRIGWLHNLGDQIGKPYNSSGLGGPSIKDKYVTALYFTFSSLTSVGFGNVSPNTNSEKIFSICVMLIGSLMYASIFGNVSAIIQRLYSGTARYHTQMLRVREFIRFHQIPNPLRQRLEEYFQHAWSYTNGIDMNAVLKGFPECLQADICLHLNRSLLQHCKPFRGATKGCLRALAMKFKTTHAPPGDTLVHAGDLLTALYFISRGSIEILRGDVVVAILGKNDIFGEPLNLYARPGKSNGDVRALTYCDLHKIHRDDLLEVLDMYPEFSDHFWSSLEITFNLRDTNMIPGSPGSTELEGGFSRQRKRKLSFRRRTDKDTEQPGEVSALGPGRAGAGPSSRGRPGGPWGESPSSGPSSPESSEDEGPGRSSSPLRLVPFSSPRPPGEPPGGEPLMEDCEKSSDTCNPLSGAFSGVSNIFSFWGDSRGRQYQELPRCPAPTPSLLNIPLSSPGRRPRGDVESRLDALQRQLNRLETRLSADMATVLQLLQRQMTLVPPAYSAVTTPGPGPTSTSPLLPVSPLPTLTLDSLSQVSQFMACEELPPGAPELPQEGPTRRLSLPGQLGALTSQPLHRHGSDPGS

[5] = Clearance in rat at 2 mg/kg, iv; format: ADME, organism-based; parameters: dose 2 mg/kg, route intravenous; conditions: in vivo
[6] = Clearance in dog at 2 mg/kg, iv; format: ADME, organism-based, Canis lupus familiaris; parameters: dose 2 mg/kg, route intravenous; conditions: in vivo
[7] = Clearance in monkey at 2 mg/kg, iv; format: ADME, organism-based, Macaca mulatta; parameters: dose 2 mg/kg, route intravenous; conditions: rhesus monkey, in vivo
[8] = Volume of distribution at steady state in rat at 2 mg/kg, iv; format: ADME, organism-based; parameters: dose 2 mg/kg, route intravenous; conditions: in vivo, read-out: Vdss
[9] = Volume of distribution at steady state in dog at 2 mg/kg, iv; format: ADME, organism-based, Canis lupus familiaris; parameters: dose 2 mg/kg, route intravenous; conditions: in vivo, read-out: Vdss
[10] = Volume of distribution at steady state in monkey at 2 mg/kg, iv; format: ADME, organism-based, Macaca mulatta; parameters: dose 2 mg/kg, route intravenous; conditions: rhesus monkey, in vivo, read-out: Vdss
[11] = Half life in rat at 10 mg/kg; format: ADME, organism-based; parameters: dose 10 mg/kg; conditions: in vivo
[12] = Half life in dog at 5 mg/kg; format: ADME, organism-based, Canis lupus familiaris; parameters: dose 5 mg/kg; conditions: in vivo
[13] = Half life in monkey at 5 mg/kg; format: ADME, organism-based, Macaca mulatta; parameters: dose 5 mg/kg; conditions: rhesus monkey, in vivo
[14] = Oral bioavailability in rat at 10 mg/kg; format: ADME, organism-based; conditions: in vivo
[15] = Oral bioavailability in dog at 5 mg/kg; format: ADME, organism-based, Canis lupus familiaris; conditions: in vivo
[16] = Oral bioavailability in monkey at 5 mg/kg; format: ADME, organism-based, Macaca mulatta; conditions: rhesus monkey, in vivo
[17] = Bioavailability in rat; format: ADME, organism-based; conditions: in vivo

| Structure (SMILES) | IC50 [1] [µM] | CC50 [2] [µM] | other results |
| --- | --- | --- | --- |
| O=C(NC1CCCc2c1[nH]c1ccc(Br)cc21)c1ccccn1 (racemic) | 0.005 | 72 |  |
| Cc1ccc(S(=O)(=O)NC2CCCc3c2[nH]c2ccc(Br)cc32)cc1 (stereo not given) | 0.024 | > 20 |  |
| O=C(N[C@H]1CCCc2c1[nH]c1ccc(Br)cc21)c1ccccc1 | 5.7 | 52 |  |
| C[C@@H](N[C@@H]1CCCc2c1[nH]c1ccc(Br)cc21)c1ccccc1 |  |  | IC50 [3]: 0.16 µM |
| Cc1ccccc1C(=O)NC1CCCc2c1[nH]c1ccc(Br)cc21 (stereo not given) | 0.5 | 40 |  |
| Brc1ccc2[nH]c3c(c2c1)CCCC3Nc1ncccn1 (stereo not given) | 0.09 | 89.5 |  |
| O=C(N[C@@H]1CCCc2c1[nH]c1ccc(Cl)cc21)c1ccccc1 | 0.02 | 26 |  |
| O=C(CCc1ccccc1)NC1CCCc2c1[nH]c1ccc(Br)cc21 (stereo not given) | 1.2 | > 50 |  |
| O=C(N[C@@H]1CCCc2c1[nH]c1ccc(Cl)cc21)c1ccccc1F | 0.008 | 24 | IC50 [3]: > 20 µM; IC50 [4]: > 20 µM |
| O=C(Cc1ccccc1)NC1CCCc2c1[nH]c1ccc(Br)cc21 (stereo not given) | 0.58 | > 50 |  |
| O=C(NC1CCCc2c1[nH]c1ccc(Br)cc21)c1ccccc1F (racemic) | 0.008 | 49 |  |
| O=C(NC1CCCc2c1[nH]c1ccc(Br)cc21)c1ccccc1 (stereo not given) | 0.03 | > 20 |  |
| O=C(N[C@@H]1CCCc2c1[nH]c1ccc(Cl)cc21)c1ccccn1 | 0.005 | 16 | clearance [5]: 13.1 mL/min/kg; clearance [6]: 5 mL/min/kg; clearance [7]: 1.1 mL/min/kg; Vd [8]: 1.6 L/kg; Vd [9]: 1.7 L/kg; Vd [10]: 0.13 L/kg; half-life [11]: 4.1 h; half-life [12]: 9.5 h; half-life [13]: 3.6 h; bioavailability [14]: 56%; bioavailability [15]: 35%; bioavailability [16]: 56% |
| Brc1ccc2[nH]c3c(c2c1)CCCC3Nc1ccccc1 (stereo not given) | 0.01 | 50.8 | bioavailability [17]: < 5% |
| COc1cccc(C(=O)NC2CCCc3c2[nH]c2ccc(Br)cc32)c1 (racemic) | 0.021 | 26 |  |
| O=C(/C=C/c1ccccc1)NC1CCCc2c1[nH]c1ccc(Br)cc21 (stereo not given) | 0.32 | > 40 |  |
| O=C(N[C@H]1CCCc2c1[nH]c1ccc(Cl)cc21)c1ccccc1 | 11.3 | 55 |  |

| Structure (SMILES) | IC50 [1] [µM] | CC50 [2] [µM] | other results |
| --- | --- | --- | --- |
| O=C(NC1CCCc2c1[nH]c1ccc(Br)cc21)OCc1ccccc1 (stereo not given) | 0.045 | > 20 |  |
| O=C(NC1CCCc2c1[nH]c1ccc(Br)cc21)C1CCCCC1 (stereo not given) | 0.4 | 50 |  |
| Brc1ccc2[nH]c3c(c2c1)CCCC3Nc1ccccn1 (stereo not given) | 0.04 | 20.7 |  |
| COc1ccccc1C(=O)NC1CCCc2c1[nH]c1ccc(Br)cc21 (racemic) | 21 | 100 |  |
| O=C(N[C@@H]1CCCc2c1[nH]c1ccc(Br)cc21)c1ccccc1 | 0.008 | 39 |  |
| O=C(NC1CCCc2c1[nH]c1ccc(Br)cc21)c1ccncc1 (racemic) | 0.2 | 100 |  |
| O=C(NC1CCCc2c1[nH]c1ccc(Br)cc21)c1cccc(F)c1 (racemic) | 0.018 | 65 |  |
| CS(=O)(=O)NC1CCCc2c1[nH]c1ccc(Br)cc21 (stereo not given) | 2.26 | > 50 |  |
| Cc1ccc(C(=O)NC2CCCc3c2[nH]c2ccc(Br)cc32)cc1 (racemic) | 0.01 | 87 |  |
| CC(=O)NC1CCCc2c1[nH]c1ccc(Br)cc21 (stereo not given) | 12.9 | > 50 |  |
| O=C(NC1CCCc2c1[nH]c1ccc(Br)cc21)c1cccnc1 (racemic) | 0.19 | 100 |  |
| O=C(N[C@H]1CCCc2c1[nH]c1ccc(Cl)cc21)c1ccccn1 | 9 | 61 |  |
| COc1ccc(C(=O)NC2CCCc3c2[nH]c2ccc(Br)cc32)cc1 (racemic) | 0.017 | 88 |  |
| O=C(NC1CCCc2c1[nH]c1ccc(Br)cc21)c1ccc(F)cc1 (racemic) | 0.044 | 47 |  |
| O=C(N[C@H]1CCCc2c1[nH]c1ccc(Cl)cc21)c1ccccc1F | 2.1 | 36 |  |
| Cc1cccc(C(=O)NC2CCCc3c2[nH]c2ccc(Br)cc32)c1 (racemic) | 0.024 | 41 |  |
